Results reported in patent US11111375B2, “Compositions and methods for generating oligodendrocyte precursors” (The Regents of the University of California, priority 2015, dated 2021).

How the values were obtained:
[1] = tested on: H9 hESCs; assay: Preliminary comparison of SHH and SAG for early OPC differentiation (ICC); type: cell-based, human; conditions: 3D, 13 days
Description: Following expansion, hPSCs were cultured in early OPC differentiation medium as described in FIG. 4A and fed daily with neural induction medium. Briefly, cells were first patterned with the dual-SMAD inhibitors LDN193189 and SB431542, and then ventralized using SHH or SAG. In some conditions, cells were caudalized using RA. On day 11 of the differentiation, cell-aggregates were split at a 1 to 3 ratio, broken into smaller-size aggregates by gentle pipetting (up and down, 10-15 times), re-encapsulated in the thermoresponsive gel, and fed with OPC proliferation medium. O1 ng/mL of FGF-2 (Peprotech) was then added to the OPC proliferation media described in FIG. 7A (added daily from day 14 until day 18, or from day 20 until day 24 of the differentiation). After FGF treatment, cells were fed every 2-3 days with OPC maturation medium, which included 20 μg/mL of L-Ascorbic Acid (Sigma) from day 75 until day 95. […]
For ICC analysis of cells differentiated in 3D, cell-spheres were transferred onto poly-D-lysine (10 μg/mL) and laminin (10 μg/mL)-coated glass-bottom plates, and incubated with their respective medium to enable cell spreading. […] Image Xpress Micro (IXM) was used for ICC quantification analysis, and Zeiss LSM 710 Axio Observer was used for confocal imaging. Images were analyzed using ImageJ and quantified using CellProfiler.

[2] = tested on: H9 cells; assay: ICC of OPC maturation markers (O4, SOX10, NKX2.2, OLIG2) in H9 cells; type: cell-based, human
Description: Following expansion, hPSCs were cultured in early OPC differentiation medium as described in FIG. 4A and fed daily with neural induction medium. Briefly, cells were first patterned with the dual-SMAD inhibitors LDN193189 and SB431542, and then ventralized using SHH or SAG. In some conditions, cells were caudalized using RA. On day 11 of the differentiation, cell-aggregates were split at a 1 to 3 ratio, broken into smaller-size aggregates by gentle pipetting (up and down, 10-15 times), re-encapsulated in the thermoresponsive gel, and fed with OPC proliferation medium. O1 ng/mL of FGF-2 (Peprotech) was then added to the OPC proliferation media described in FIG. 7A (added daily from day 14 until day 18, or from day 20 until day 24 of the differentiation). After FGF treatment, cells were fed every 2-3 days with OPC maturation medium, which included 20 μg/mL of L-Ascorbic Acid (Sigma) from day 75 until day 95. See FIG. 20 for a detailed description of the differentiation conditions.
For ICC analysis of cells differentiated in 3D, cell-spheres were transferred onto poly-D-lysine (10 μg/mL) and laminin (10 μg/mL)-coated glass-bottom plates, and incubated with their respective medium to enable cell spreading. After 48 hr (for early OPC differentiation) or 5 days (for late stage OPC analysis), cells were fixed with 4% PFA for 15 min at RT. After one wash with PBS, cells were incubated overnight at 4° C. with primary antibody in freshly prepared staining primary solution (5% donkey serum, (DS), 2% bovine serum albumin (BSA) and 0.25% Triton X-100 in PBS). Then, cells were gently washed twice with PBS, and incubated for 2 hr at room temperature (RT) with secondary antibodies and 4′,6-diamidino-2-phenylindole (DAPI) (1:1000) in freshly prepared secondary staining solution (2% DS, 2% BSA and 0.25% Triton X-100 in PBS). Cells were then washed three times with PBS and imaged using a Zeiss Axio Observer epi-fluorescent microscope. Image Xpress Micro (IXM) was used for ICC quantification analysis, and Zeiss LSM 710 Axio Observer was used for confocal imaging. Images were analyzed using ImageJ and quantified using CellProfiler.

[3] = early FGF treatment: FGF-2 daily day 14 to day 18

## CNC1CCC(N(Cc2cccc(-c3ccncc3)c2)C(=O)c2sc3ccccc3c2Cl)CC1 (centres unmarked) [SAG]
[1]
  differences in NKX2.2 and OLIG2 expression, SHH vs SAG: only minor differences

## FGF-2: basic fibroblast growth factor-2 added to OPC proliferation medium
[2]; FGF-2 from days 20-24, day 95
  fewer O4+ OPCs than with early FGF treatment: ~4 fold
[2]; [3]
  OPC differentiation on day 24 versus analogous condition without FGF: similar
  number of cells expressing O4 by day 95: increased

## Vitamin D [reference compound]
[2]; 0.1 μM from day 66 to day 95, H9 hESCs, condition 6 and early FGF
  O4 expression among treated cells: no increase
